Where a name gives a salt, the structure may show the parent alone. Read-outs that look alike come from different tables or passages of the source.
What was measured:
[1] = target: muscarinic receptors; assay: Radio ligand binding: displacement of the muscarinic agonist 3H-OXO-M from rat cerebral cortex membranes; set-up: species or system Hooded Lister rats; settings: displacement of agonist 3H-OXO-M (2 nM), 2 mM magnesium chloride, 37° C., 30 min
[2] = target: muscarinic receptors; type: binding, Hooded Lister rats; settings: displacement of antagonist 3H-QNB (0.27 nM), rat cerebral cortex membranes, 37° C., 30 min

## Cc1nnc(C23CCCN(CC2)C3)o1 (centres unmarked) [Compound E13, 5-(2-Methyl-1,3,4-oxadiazol-5-yl)-1-azabicyclo3.2.1]octane oxalate salt]
[1]
  IC50: 39 nM
[2]
  IC50: 9400 nM

## COC(=O)C12CCN(CC1)C2 [Compound E6, Methyl 1-azabicyclo[2.2.1]hept-4-ylcarboxylate oxalate salt]
[1]
  IC50: 42 nM
[2]
  IC50: 29000 nM

## Cc1nnc(C23CCN(CC2)C3)o1 [Compound E17, 4-(2-Methyl-1,3,4-oxadiazol-5-yl)-1-azabicyclo[2.2.1]heptane oxalate salt]
[1]
  IC50: 230 nM
[2]
  IC50: 48000 nM

## Cc1noc(C23CCCN(CC2)C3)n1 (centres unmarked) [Compound E10, 5-(3-Methyl-1,2,4-oxadiazol-5-yl)-1-azabicyclo[3.2.1]octane oxalate salt]
[1]
  IC50: 17 nM
[2]
  IC50: 4000 nM

## c1coc(C23CCCN(CC2)C3)c1 (centres unmarked) [Compound E21, 5-(Fur-2-yl)-1-azabicyclo[3.2.1]octane hydrochloride salt]
[1]
  IC50: 34 nM
[2]
  IC50: 3800 nM

## c1nnc(C23CCCN(CC2)C3)o1 (centres unmarked) [Compound E14, 5-(1,3,4-Oxadiazol-2-yl)-1-azabicyclo[3.2.1]octane oxalate salt]
[1]
  IC50: 160 nM
[2]
  IC50: 9000 nM

## Cc1noc(C23CCN(CC2)C3)n1 [Compound E11, 4-(3-Methyl-1,2,4-oxadiazol-5-yl)-1-azabicyclo[2.2.1]-heptane oxalate salt]
[1]
  IC50: 93 nM
[2]
  IC50: 14000 nM

## COC(=O)C12CCCN(CC1)C2 (centres unmarked) [Compound E3, Methyl 1-azabicyclo[3.2.1]oct-5-ylcarboxylate oxalate salt]
[1]
  IC50: 14 nM
[2]
  IC50: 6700 nM

## c1coc(C23CCCN(CC2)C3)n1 (centres unmarked) [Compound E12, 5-(1,3-Oxazol-2-yl)-1-azabicyclo[3.2.1]octane oxalate salt]
[1]
  IC50: 145 nM
[2]
  IC50: 15000 nM

## c1cc(C23CCCN(CC2)C3)on1 (centres unmarked) [Compound E15, 5-(1,2-Oxazol-5-yl)-1-azabicyclo[3.2.1]octane oxalate salt]
[1]
  IC50: 130 nM
[2]
  IC50: 7800 nM

Source: patent US4971975A (priority 1987, dated 1990)
